For the assay, the system named is MELAS cells (primary culture cells from the skeletal muscle and skin of MELAS patients). The settings on record: 100 μM, 30 minutes. How it is done:
MELAS cells were plated to result in a cell density of 1×10^5 to 1×10^6 cells/mL in the presence of DMEM containing 10% FCS, and they were then cultured at 37° C. in a 5% CO2 atmosphere for 3 days. After completion of the culture for 3 days, when the cell density reached 5×10^5 to 6×10^6 cells/mL, the cells were diluted by a factor of 10^4 to 1.2×10^5. The resultant cells were plated and were further cultured for 15 days. After completion of the culture for 15 days, several single colonies of cells were selected, and DNA was then extracted by a common method. Using the extracted DNA sample as a template, PCR was carried out with a primer pair for amplifying a site around the nucleotide at position 3243 of the mtDNA. Thereafter, the PCR product was treated with ApaI. In the case of normal mtDNA, the sequence around the nucleotide at position 3243 is GAGCCC (wherein the underlined portion corresponds to the nucleotide at position 3243). […] Accordingly, it becomes possible to evaluate the heteroplasmic state of the cells by calculating the ratio of the 182-bp and 112-bp bands to the 294-bp bands (see Goto et al., Nature, 348, 651-653, 1990 for the details of this method).
Thereafter, the cells were washed with PBS three times, and were then cultured for 3 days. After completion of the culture for 3 days, when the cell density reached 5×10^5 to 6×10^6 cells/mL, the cells were diluted by a factor of 10^4 to 1.2×10^5. The resultant cells were plated and were further cultured for 15 days. After completion of the culture for 15 days, several single colonies of cells were selected, and DNA was then extracted by a common method. The intracellular percentage of the A3243G substitution mutation of mtDNA was examined with respect to the obtained DNA samples by the same method as described above.

The structures appear in SMILES notation.

`OO` [hydrogen peroxide]: the “percentage of A3243G substitution mutation in cell clones obtained after a hydrogen peroxide treatment” value (then 3 days and 15 days culture, single-colony clones with decreased percentage, e.g. clone 16, clone 25) is given as roughly 0%. Moreover, the “percentage of A3243G substitution mutation in clones where it became higher than without hydrogen peroxide treatment” value (e.g. clones 15, 27, 29, 32, 34, 35, 36, 39, untreated 30%) was greater than 30%. Moreover, the “effect of treatment on homoplasmic state of the cells” value (MELAS cells) was “promotes the conversion of the cells to a homoplasmic state”.

Source of the values: US20120040464A1, “METHOD FOR GENERATING HOMOPLASMIC CELLS FROM HETEROPLASMIC CELLS” (NATIONAL CENTER OF NEUROLOGY AND PSYCHIATRY, priority 2009, published 2012).
